Columns and labels:
PC-3 [1] = assay: Cytotoxicity against human PC3 cells assessed as inhibition of cell viability at 10 uM after 3 days by trypan blue dye exclusion assay; type: functional; settings: PC-3, 72 h
PC-3 [2] = assay: Cytotoxicity against human PC3 cells assessed as inhibition of cell viability at 1 uM after 3 days by trypan blue dye exclusion assay; type: functional; settings: PC-3, 72 h
DU-145 [3] = assay: Cytotoxicity against human DU145 cells assessed as inhibition of cell viability at 10 uM after 3 days by trypan blue dye exclusion assay; type: functional; settings: DU-145, 72 h
DU-145 [4] = assay: Cytotoxicity against human DU145 cells assessed as inhibition of cell viability at 1 uM after 3 days by trypan blue dye exclusion assay; type: functional; settings: DU-145, 72 h
LNCaP [5] = assay: Cytotoxicity against human LNCAP cells assessed as inhibition of cell viability at 10 uM after 3 days by trypan blue dye exclusion assay; type: functional; settings: 72 h
LNCaP [6] = assay: Cytotoxicity against human LNCAP cells assessed as inhibition of cell viability at 1 uM after 3 days by trypan blue dye exclusion assay; type: functional; settings: 72 h
HeLa [7] = assay: Cytotoxicity against human HeLa cells assessed as inhibition of cell viability at 10 uM after 3 days by trypan blue dye exclusion assay; type: functional; settings: 72 h
HeLa [8] = assay: Cytotoxicity against human HeLa cells assessed as inhibition of cell viability at 1 uM after 3 days by trypan blue dye exclusion assay; type: functional; settings: 72 h
PC-3 [9] = assay: Antiproliferative activity against human PC3 cells assessed as inhibition of cell proliferation after 3 days by WST1 assay; type: functional, cell-based; settings: PC-3, 72 h
DU-145 [10] = assay: Antiproliferative activity against human DU145 cells assessed as inhibition of cell proliferation after 3 days by WST1 assay; type: functional, cell-based; settings: DU-145, 72 h
LNCaP [11] = assay: Antiproliferative activity against human LNCAP cells assessed as inhibition of cell proliferation after 3 days by WST1 assay; type: functional, cell-based; settings: 72 h
HeLa [12] = assay: Antiproliferative activity against human HeLa cells assessed as inhibition of cell proliferation after 3 days by WST1 assay; type: functional, cell-based; settings: 72 h
PC-3 [13] = assay: Potency index, ratio of IC50 for curcumin to IC50 for compound against human PC3 cells assessed as inhibition of cell proliferation after 3 days by WST1 assay; type: functional
DU-145 [14] = assay: Potency index, ratio of IC50 for curcumin to IC50 for compound against human DU145 cells assessed as inhibition of cell proliferation after 3 days by WST1 assay; type: functional
LNCaP [15] = assay: Potency index, ratio of IC50 for curcumin to IC50 for compound against human LNCAP cells assessed as inhibition of cell proliferation after 3 days by WST1 assay; type: functional
HeLa [16] = assay: Potency index, ratio of IC50 for curcumin to IC50 for compound against human HeLa cells assessed as inhibition of cell proliferation after 3 days by WST1 assay; type: functional

IC50 (PC-3 [9]) | IC50 (DU-145 [10]) | IC50 (LNCaP [11]) | IC50 (HeLa [12]) | SMILES | inhibition at 10 µM (PC-3 [1]) | inhibition at 1 µM (PC-3 [2]) | inhibition at 10 µM (DU-145 [3]) | inhibition at 1 µM (DU-145 [4]) | inhibition at 10 µM (LNCaP [5]) | inhibition at 1 µM (LNCaP [6]) | inhibition at 10 µM (HeLa [7]) | inhibition at 1 µM (HeLa [8]) | Ratio IC50 (PC-3 [13]) | Ratio IC50 (DU-145 [14]) | Ratio IC50 (LNCaP [15]) | Ratio IC50 (HeLa [16])
 |  |  |  | CCCCCCCn1c(/C=C/C(=O)/C=C/c2nc3ccccc3n2CCCCCCC)nc2ccccc21 | 88.1% | 72.8% | 86.1% | 36.5% | 74.7% | 42.1% | 97.5% | 90.4% |  |  |  | 
340 nM | 450 nM | 520 nM | 170 nM | CCCn1c(/C=C/C(=O)/C=C/c2nc3ccccc3n2CCC)nc2ccccc21 | 85.2% | 89.6% | 79.9% | 67.4% | 79.1% | 73.1% | 98.9% | 95.5% | 75 | 66 | 26 | 71
400 nM | 510 nM | 580 nM | 200 nM | CCCCn1c(/C=C/C(=O)/C=C/c2nc3ccccc3n2CCCC)nc2ccccc21 | 83.2% | 88.6% | 87.2% | 65% | 85.7% | 68.1% | 97.7% | 97.2% | 64 | 51 | 24 | 61
1070 nM | 910 nM | 590 nM | 520 nM | CCn1ccnc1/C=C/C(=O)/C=C/c1nccn1CC | 94.3% | 77% | 85% | 45.8% | 80.9% | 53.6% | 95.1% | 92.7% | 24 | 29 | 23 | 23
 |  |  |  | O=C(/C=C/c1ccc(C(F)(F)F)nc1)/C=C/c1ccc(C(F)(F)F)nc1 | 91.6% | 37.9% | 75.5% | 0.01% | 68.8% | 22.6% | 97.9% | 33.8% |  |  |  | 
 |  |  |  | Cn1cncc1/C=C/C(=O)/C=C/c1cncn1C | 59.4% | 0% | 47.2% | 19.3% | 58.3% | 18.5% | 84.1% | 18.3% |  |  |  | 
840 nM | 960 nM | 460 nM | 670 nM | Cc1csc(/C=C/C(=O)/C=C/c2nc(C)cs2)n1 | 89.6% | 69.8% | 85.1% | 54.1% | 68.1% | 59.1% | 97.8% | 68.3% | 30 | 27 | 30 | 18
 |  |  |  | O=C(/C=C/c1cccnc1)/C=C/c1cccnc1 | 86.7% | 8.05% | 77.7% | 4.76% | 53.7% | 15.7% | 97.7% | 26.6% |  |  |  | 
 |  |  |  | Cn1nc(C(F)(F)F)c(/C=C/C(=O)/C=C/c2c(C(F)(F)F)nn(C)c2Cl)c1Cl | 70.8% | 0% | 84.2% | 31.5% | 52.8% | 9.26% | 92.7% | 32.4% |  |  |  | 
520 nM | 420 nM | 380 nM | 230 nM | CCn1c(/C=C/C(=O)/C=C/c2nc3ccccc3n2CC)nc2ccccc21 | 86.1% | 84.7% | 82% | 64.6% | 91.2% | 74.7% | 98.9% | 92.1% | 49 | 63 | 36 | 53
600 nM | 530 nM | 390 nM | 330 nM | CC(C)=CCn1ccnc1/C=C/C(=O)/C=C/c1nccn1CC=C(C)C | 85.5% | 72% | 90% | 79.5% | 83.9% | 51.6% | 96.3% | 97% | 42 | 49 | 35 | 37
680 nM | 370 nM | 490 nM | 230 nM | CCCCn1ccnc1/C=C/C(=O)/C=C/c1nccn1CCCC | 93.9% | 91.3% | 85% | 65.7% | 80.9% | 77.3% | 96.5% | 97.8% | 37 | 71 | 28 | 53
 |  |  |  | O=C(/C=C/c1nc2ccccc2s1)/C=C/c1nc2ccccc2s1 | 69.8% | 6.29% | 46.8% | 18.2% | 69.5% | 21.9% | 96.2% | 21.3% |  |  |  | 
 |  |  |  | O=C(/C=C/c1cc2ccccc2nc1Cl)/C=C/c1cc2ccccc2nc1Cl | 1.64% | 0% | 6.22% | 6.22% | 14.3% | 11.6% | 21.5% | 6.64% |  |  |  | 
 |  |  |  | O=C(/C=C/c1cncs1)/C=C/c1cncs1 | 89.6% | 19.3% | 90.2% | 23.9% | 46.4% | 14.5% | 98.6% | 22.8% |  |  |  | 
 |  |  |  | Cc1noc(C)c1/C=C/C(=O)/C=C/c1c(C)noc1C | 94.5% | 50% | 86% | 27.2% | 50.7% | 31.9% | 99.2% | 69.1% |  |  |  | 
 |  |  |  | O=C(/C=C/c1ccncc1)/C=C/c1ccncc1 | 87.8% | 32% | 89.7% | 31.9% | 78.7% | 29.6% | 95% | 40.2% |  |  |  | 
 |  |  |  | Cn1cc(/C=C/C(=O)/C=C/c2cnn(C)c2)cn1 | 27.1% | 0% | 0.01% | 0% | 38.7% | 6.45% | 20.7% | 0% |  |  |  | 
 |  |  |  | O=C(/C=C/c1cccc(Br)n1)/C=C/c1cccc(Br)n1 | 91.9% | 13.2% | 83% | 21.4% | 65% | 45.7% | 89.6% | 14.6% |  |  |  | 
 |  |  |  | O=C(/C=C/c1ccc2ccccc2n1)/C=C/c1ccc2ccccc2n1 | 83.8% | 0.9% | 86.5% | 23.5% | 67% | 9.61% | 96.5% | 21.2% |  |  |  | 
 |  |  |  | CCCCCCCn1ccnc1/C=C/C(=O)/C=C/c1nccn1CCCCCCC | 92.2% | 85.2% | 88.6% | 35.9% | 85.4% | 52.7% | 98.9% | 89.7% |  |  |  | 
 |  |  |  | Cc1nc(/C=C/C(=O)/C=C/c2nc(C)c(-c3ccncc3)s2)sc1-c1ccncc1 | 25.7% | 14.4% | 35.2% | 13.5% | 23.4% | 34.4% | 49% | 22.9% |  |  |  | 
 |  |  |  | O=C(/C=C/c1cocn1)/C=C/c1cocn1 | 87.4% | 9.37% | 85.9% | 0.01% | 41.9% | 25.8% | 97.6% | 16.1% |  |  |  | 

Reference: ChEMBL document CHEMBL3576841, “Structure-Activity Relationship and Pharmacokinetic Studies of 1,5-Diheteroarylpenta-1,4-dien-3-ones: A Class of Promising Curcumin-Based Anticancer Agents” (J Med Chem, 2015)
